According to patent publication US9101769B2, “High density epidural stimulation for facilitation of locomotion, posture, voluntary movement, and recovery of autonomic, sexual, vasomotor, and cognitive function after neurological injury” (The Regents of the University of California, priority 2011, dated 2015):

Tests used:
stepping in animals = test: Pharmacological facilitation of stepping, optimal concentration of illustrative agents (Table 1); type: in vivo
Protocol: In certain embodiments, the methods described herein are used in conjunction with various pharmacological agents. […] These agents can be used in combination with epidural stimulation and physical therapy as described above.
In certain embodiments, the drugs are administered systemically, while in other embodiments, the drugs are administered locally, e.g., to particular regions of the spinal cord. Drugs that modulate the excitability of the spinal neuromotor networks are combinations of noradrenergic, serotonergic, GABAergic, and glycinergic receptor agonists and antagonists. Illustrative pharmacological agents include, but are not limited to agonists and antagonists to one or more combinations of serotonergic: 5-HT1A, 5-HT2A, 5-HT3, and 5HT7 receptors; to noradrenergic alpha1 and 2 receptors; and to dopaminergic D1 and D2 receptors (see, e.g., Table 1).

[1] = tested on: rat with complete mid-thoracic spinal cord transection; test: Epidural stimulation coupled with drug therapy, locomotor behavior after complete spinal cord transection (FIG. 1); type: in vivo
Protocol: FIG. 1 summarizes recent experiments in rats that were carried out to assess the effectiveness of epidural stimulation coupled with combined drug therapy in the treatment of complete spinal cord injuries. The combination of quipazine and 8-0HDPAT with simultaneous epidural stimulation at spinal sites L2 and S1 results in robust coordinated stepping as early as one week after a complete spinal cord transection. Locomotor behavior observed from a typical rat before the injury and one week after a complete mid-thoracic spinal cord transection. The amount of body weight support provided to the rat is shown in red. One week post-injury, no spontaneous stepping activity is observed. […] Sol, soleus; TA, tibialis anterior; MTP, metatarsal-phalangeal.
FIG. 1 summarizes experiments in rats that were carried out to assess the effectiveness of epidural stimulation coupled with combined drug therapy in acute treatment of complete spinal cord injury.

[2] = one week after complete mid-thoracic spinal cord transection, drug administration without epidural stimulation
[3] = one week post-injury, epidural stimulation at L2 plus S1 with quipazine plus 8-OHDPAT together
[4] = one week post-injury, epidural stimulation simultaneously at L2 plus S1 in combination with either quipazine or 8-OHDPAT

Cl.NC1CCN(c2cccc(Cl)n2)CC1 [SR 57227A]
Optimal Concentration (stepping in animals; route I.P.): 1.5 mg/kg

COc1ccccc1N1CCN(CCN(C(=O)C2CCCCC2)c2ccccn2)CC1 [Way 100.635]
Optimal Concentration (stepping in animals; route I.P.): 0.5 mg/kg

Oc1cc2c(c(Cl)c1O)CCNCC2c1ccccc1 (stereo not drawn) [SKF-81297]
Optimal Concentration (stepping in animals; route I.P.): 0.2 mg/kg

CC1CCN(CC[C@H]2CCCN2S(=O)(=O)c2cccc(O)c2)CC1 [SB 269970]
Optimal Concentration (stepping in animals; route I.P.): 7 mg/kg

CCCN(CCC)C1CCc2cccc(O)c2C1 (stereo not drawn) [8-OHDPAT]
Locomotor behavior (stepping) [1, 2]: erratic movements | Locomotor behavior (stepping) [1, 3]: coordinated, plantar stepping with features resembling those observed pre-lesion | Locomotor behavior (stepping) [1, 4]: enables plantar stepping | Optimal Concentration (stepping in animals; route S.C.): 0.05 mg/kg

c1ccc2nc(N3CCNCC3)ccc2c1 [Quipazine]
Locomotor behavior (stepping) [1, 2]: erratic movements | Locomotor behavior (stepping) [1, 3]: coordinated, plantar stepping with features resembling those observed pre-lesion | Locomotor behavior (stepping) [1, 4]: enables plantar stepping

Cc1nccn1CC1CCc2c(c3ccccc3n2C)C1=O (stereo not drawn) [Ondanesetron]
Optimal Concentration (stepping in animals; route I.P.): 3 mg/kg
